What was measured:
[1] = tested on: hypercholesterolemic mice (ApoE^−/−, HCD); test: Azoxymethane (AOM)-induced colorectal neoplasia; parameters: species or system mouse; settings: in vivo pretreatment
Description: All mice were purchased from Jackson Laboratories (Bar Harbor, Me.) and were maintained in the mouse barrier facility. Care of mice was in accordance with NIH guidelines and the Institutional Animal Care and Use Committee of the University of Massachusetts Medical School approved all protocols. Mice were kept on a 12 hr day/night schedule and were allowed free access to chow and water. ApoE^−/− and WT mice were fed standard mouse chow (5.4 g fat/100 g diet, 0% cholesterol). HCD mice were fed a diet with 10 g fat/100 g diet, […] (Research Diets, New Brunswick, N.J.). […] Azoxymethane (AOM) was given by intraperitoneal injection (10 mg/Kg weekly for 3 weeks); 1% dextran sodium sulfate was added to the drinking water for the Pt week after AOM treatment. The colon and rectum was removed en bloc from each mouse and the number of polyps was identified using a dissecting microscope. Each polyp was frozen in OCT at −80° C. and cryosections (10 μM) cut. […] (A) Total serum cholesterol measured under fasting conditions (16 hr) was greater in ApoE^−/− and HCD groups than in the WT group. […] Ten weeks later, the incidence and number of polyps were determined in the colon and rectum, and a pathologist blinded to study condition assigned each polyp a histological grade (hyperplasia, grade 1, 2, or 3 adenoma, or carcinoma). […]

Fyn = Fyn expression in total thymocyte population; format: in vivo, mouse; settings: ApoE^−/− and HCD mice
Description: Fyn, a member of the Src family of tyrosine kinases, is a critical participant in NKT cell development (33,34). […] FIGS. 55A-55C show Thymocyte Fyn expression is reduced in hypercholesterolemic mice. […] Representative western blots from 3 mice in each group, all run on the same gel, are shown. […] However, in DN3 and DN4 thymocytes, Fyn mRNA expression was less in ApoE^−/− than in WT mice. m±sd, *p<0.05 vs. WT; n=4 mice per group. (C) siRNA for Notch1 reduced mRNA expression of Fyn in WT thymocytes in vitro, with a threshold observed at 1.0 μg siRNA. m±sd, n=3 mice; *p<0.05 vs. random RNA. A representative western blot showing a single experiment run on the same gel is shown. […] These findings indicate that Notch1 and Fyn expression are linked, and that the reduced NKT expression in hypercholesterolemic mice is due, in part, to the Notch1 dependent reduction of Fyn expression in thymocytes. Finally, Fyn expression was determined in the total thymocyte population from WT recipient mice transplanted with ApoE^−/−- or WT-derived HSCs. Thymocyte Fyn expression in WT recipients transplanted with ApoE^−/−-derived HSCs was less than half that observed in WT recipients transplanted with WT-derived HSCs (FIG. 56). […] Fyn expression in thymocytes from the Apoe→WT group was less than in the WT→WT group. m±sd; n=4; *p<0.05 vs. WT→WT group. […]

## CC(=O)N[C@@H](CS)C(=O)O [NAC, N-acetylcysteine]
[1]; ApoE^−/− and HCD mice
  histological severity of AOM-induced colorectal polyps: these effects were reversed by in vivo pretreatment with NAC
[1]; hypercholesterolemic mice
  susceptibility to AOM-induced neoplasia: reduced susceptibility to AOM-induced neoplasia
Fyn
  expression of Fyn in the total thymocyte population: restored in vivo by treatment with NAC

From patent publication US11090305B2, “Methods and compositions to reduce oxidative stress” (University of Massachusetts, priority 2009, dated 2021)
